Like-named read-outs stand apart in the source and are kept apart here.
Assays:
[1] = From the text: Absorption of nicotine from the oral cavity to the systemic circulation is dependent on the pH of the saliva, pH of the blood plasma and the pKa of nicotine, which is about 7.8. Assuming a pH of the saliva of 6.8, only about 10% of the nicotine will be in the free base form. Thus, in order to promote absorption of nicotine in a free base form, which is the form predominantly absorbed through the mucosa, the pH of the saliva must preferably be increased to at least pH 7 and to at most pH 10, more preferably to at least pH 8 and at most pH 9.5. At a pH of 8.8 about 90% of the nicotine will then be in the free base form.
[2] = cited from earlier work

## CN1CCCC1c1cccnc1 (stereo not drawn) [nicotine, 3-(1-methyl-2-pyrrolidinyl)-pyridine]
[1]; pH 8.8
  nicotine in the free base form: about 90%
[1]; saliva pH 6.8
  nicotine in the free base form: about 10%
[2]
  single dose able to kill an adult: Approximately 40 milligrams

Reference: patent publication US20070269492A1, “New product and use and manufacture thereof” (priority 2006, published 2007)
